From US20140356468A1, “COMPOSITION CONTAINING PAPER MULBERRY EXTRACTS” (AMOREPACIFIC CORPORATION, priority 2010, published 2014)

Columns and labels:
[1] = test system: Leukoplakia mice (C57bl/6-Mitf^mi-vit); assay: Gray hair prevention and black hair induction in leukoplakia mice (melanin in hair); assay type: in vivo; conditions: topical twice a day, about 3 weeks; extract 2.5%, IBMX 50 mM in vehicle
Protocol: Leukoplakia mice (C57bl/6-Mitf^mi-vit) were purchased from The Jackson Lab (USA) and used. The effect of the paper mulberry extract on gray hair prevention in the mice was tested in the following manner. The back of 12-week-old mice was depilated such that the depilated area was the same between the mice. From the day following the depilation day, gray hair-preventing substances were applied to the depilated area twice a day. As a vehicle for the gray hair-preventing substance, a mixture of EtOH:1,3-BG:DW=3:2:5 (volume ratio) was used. […] After about 3 weeks, the difference in gray hair prevention effect between the materials has been distinguished, newly grown hairs were collected and the amount of melanin in the hairs was measured using esperase (Novozyme). […] The reaction solution thus obtained was added to a 96-well plate, and the absorbance at 405 nm was measured, thereby measuring the amount of melanin in the reaction solution. As described above, the leukoplakia mouse model in which the occurrence of gray hair was stimulated was treated with each of the negative control, the positive control and the test sample, and the effects of the negative control, the positive control and the test sample were measured visually and by measuring the amount of melanin in the hair.

[2] = test system: MITF expression in Melan-a melanocyte cell line MITF-GLuc; assay: Stimulation of MITF expression in transformed melanocytes (GLuc reporter); assay type: cell-based; conditions: 100 μM, 3 days
Text: To examine the gray preventing effect of the paper mulberry extract, the effect of the paper mulberry extract on the stimulation of MITF expression was examined as disclosed in Korean Patent Application No. 10-2007-0072182 (entitled “A method for screening a gray hair-preventing substance using a transformed cell line and leukoplakia mice and a composition for preventing gray hair containing the gray hair-preventing substance”). The Melan-a melanocyte cell line MITF-GLuc (accession number: KCLRF-BP-00162) transformed with the expression vector pMITF-GLuc was cultured in RPMI 1640 medium containing 10% fetal bovine serum (FBS), 100 unit/ml penicillin-streptomycin (Gibco), 0.1 μM TPA (Sigma) and 400 μg/ml G418 under the conditions of 37° C. and 10% CO2. The positive control IBMX was purchased from Sigma and used at a concentration of 100 μM. […] After the incubation, to quantify the amount of GLuc, a small amount of the medium was taken, transferred to a measurement plate and allowed to react with a substrate. Specifically, a small amount of the medium was taken from the cell culture dish and transferred to a measurement plate, after which 1× GLuc assay working solution (NEB) was added to the medium at a ratio of 4:1, and the amount of light emitted at […] was measured using a luminometer.

elastase type III = biological target: T1, elastase type III (Sus scrofa, UniProt P00772); assay: Inhibition of elastase activity; assay type: biochemical; conditions: elastase test; extract 10 mg/L, EGCG 250 μM; untreated negative control = 100
T1 construct: purchased Sigma Aldrich E0127
T1 sequence (P00772 27-266): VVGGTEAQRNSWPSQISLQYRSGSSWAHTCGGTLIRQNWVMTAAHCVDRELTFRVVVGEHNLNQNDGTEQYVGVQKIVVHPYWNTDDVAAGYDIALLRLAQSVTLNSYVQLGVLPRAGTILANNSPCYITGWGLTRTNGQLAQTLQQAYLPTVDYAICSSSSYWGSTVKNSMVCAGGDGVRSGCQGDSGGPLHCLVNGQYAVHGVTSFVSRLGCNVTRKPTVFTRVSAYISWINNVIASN
Protocol: The elastase inhibitory activity of the paper mulberry extract prepared in Preparation Example 1 was measured in comparison with that of EGCG. The elastase and substrate used were commercially purchased from Sigma Aldrich (Cat. No. E0127, USA). The elastase inhibitory activity was measured in the following manner. […] Then, 100 μL of 0.4514 mg/mL N-SUCCINYL-[…]-NITROANILIDE in the same buffer used above was added to the plate and allowed to react at 25° C. for 15 minutes. After completion of the reaction, the absorbance at 415 nm was measured. For correction, a blank test was carried out in the same manner. The elastase inhibitory activity was calculated using the following equation. Elastase activity inhibition(%)={1-(C-D)/(A-B)}×100 wherein A: absorbance at 415 nm in the case in which the test sample was not added and the enzyme was added; B: absorbance at 415 nm in the case in which the test sample was not added and the enzyme was not added; C: absorbance at 415 nm in the case in which the test sample was added and the enzyme was added; and D: absorbance at 415 nm in the case in which the test sample was added and the enzyme was not added.

[3] = biological target: T2, 5α-reductase in HEK293-5αR2 cells (Homo sapiens, UniProt P31213); assay: Inhibition of 5α-reductase (testosterone to dihydrotestosterone conversion); assay type: cell-based; conditions: radioactivity in the DHT region/total radioactivity; extract 10 μg/ml, 2 hours
T2 construct: 3×FLAG; expressed in transfected cells; host or cells: HEK293
T2 sequence (P31213 1-254): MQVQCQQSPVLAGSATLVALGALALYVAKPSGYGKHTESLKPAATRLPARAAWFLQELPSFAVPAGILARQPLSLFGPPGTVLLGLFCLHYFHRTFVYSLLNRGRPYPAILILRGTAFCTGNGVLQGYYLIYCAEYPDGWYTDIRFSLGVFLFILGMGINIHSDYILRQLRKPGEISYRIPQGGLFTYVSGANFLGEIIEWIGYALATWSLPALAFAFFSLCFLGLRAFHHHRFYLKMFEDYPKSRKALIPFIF
Protocol: In order to examine the effect of inhibiting 5α-reductase activity, the ratio of [^14C]testosterone-to-[14^C]dihydrotestosteron conversion in HEK293-5αR2 cells was measured. HEK293 cells transfected with p3×FLAG-CMV-5αR2 were added to a 24-well plate at a density of 2.5×10^5 cells/well and cultured (Park et al., 2003, JDS. Vol. 31, ppl 91-98). The next day, the medium was replaced with fresh medium containing an enzyme substrate and an inhibitor. As the substrate of the medium, 0.05 μCi [^14C]testosterone (Amersham Pharmacia biotech, UK) was used. In order to measure the degree of inhibition, 10 μg/ml of the paper mulberry extract of Preparation Example 2 was added to the cells which were then incubated in a 5% CO2 incubator at 37° C. for 2 hours. As a positive control, finasteride was used. The culture medium was collected and, steroid was extracted with 800 μl of ethyl acetate. […]
The plastic sample was dried in air, and the amount of isotopes was measured using a Vas system. Specifically, the dried plastic sheet together with an X-ray film was placed in a Vas cassette, and after 1 week, the amounts of the testosterone and dihydrotestosterone isotopes were measured.

Collagenase (MMP-1) = Collagenase (MMP-1) production in human fibroblasts (ELISA); assay type: cell-based; conditions: extract 10 μg/ml, 24 hours; control = 100
Protocol: The collagenase production inhibitory ability of the paper mulberry extract prepared in Preparation Example 1 was measured in comparison with that of retinoic acid.
Human fibroblasts were added to a 96-well microtiter plate containing 2.5% fetal bovine serum-containing DMEM (Dulbecco's Modified Eagle's Media) at a density of 5,000 cells/well and were cultured in a 5% CO2 incubate at 37° C. to a confluence of about 70-80%. Then, the cell culture was treated with 10 μg/ml of the paper mulberry extract of Preparation Example 1 for 24 hours and collected.
The production of collagenase in the collected cell culture was measured using a commercially available collagenase measurement instrument (Catalog #: RPN 2610, Amersham Pharmacia, USA). […]
The absorbance of the yellowish 96-well plate at 405 nm was measured using a spectrophotometer, and based on the measurements, the degree of synthesis of collagenase was calculated using the following equation 1. Herein, the absorbance of a cell culture collected from a group not treated with the test sample was used as a control.
Collagenase expression(%)=(absorbance of cell group treated with material/absorbance of control)×100 Equation 1

[4] = test system: prostaglandin production in macrophages; assay: Inhibition of prostaglandin production in LPS-treated macrophages (ELISA); assay type: cell-based, mice; conditions: percentage relative to 100% for the difference between LPS-treated and non-LPS-treated group
Protocol: Anti-inflammatory effect was evaluated based on the inhibition of prostaglandin production. The anti-inflammatory effect of the paper mulberry extract of Preparation Example 1 was measured using macrophages. […] Then, 100 μl of the cell suspension was added to each well of a 96-well plate and cultured in a 5% CO2 incubator at 37° C. for 2 hours so that the macrophages were attached to the plate surface. Then, the attached macrophages were washed three times with PBS and used to test the effect of the extract. The cultured macrophages were added to 1%(w/v) LPS-containing RPMI medium at a concentration of 5×10^4 cells/ml and cultured for 12 hours to induce the production of prostaglandin, after which they were treated with 100 μl of the extract. Released prostaglandin was quantitatively analyzed by ELISA. Herein, the prostaglandin production inhibitory activity of the extract was expressed as the percentage of prostaglandin production in the group treated with LPS together with the sample relative to 100% for the difference in prostaglandin production between the LPS-treated group and the non-LPS-treated group.

[5] = test system: differentiated 3T3-L1 adipocytes; assay: Inhibition of lipogenesis (Sudan III staining of adipocytes); assay type: cell-based, mouse; design: key: expressed as +++, ++ and + depending on the degree of staining; expressed as +++, ++ and + depending on the degree of staining; expressed as +++, ++ and + depending on the degree of staining; conditions: Sudan III staining grade; positive control 50 μM caffeine
Protocol: Mouse fibroblast 3T3-L1 cells were seeded into a 6-well culture plate containing 10% fetal bovine serum (FBS)-containing DMEM (Dulbeco's modified eagle's medium (GIBCO BRL, Life Technologes) at a density of 1×10^5 cells/well. After 2 days, the medium was replaced with fresh DMEM (containing 10% FBS), followed by culture for 2 days. Then, the cultured cells were treated with DMEM (containing 10% FBS) containing 1 μg/ml insulin, 0.5 mM IBMX and 0.25 μM dexamethasone to induce differentiation, and after 2 days, the medium was replaced with insulin-containing DMEM, followed by incubation for 5 days. After 5 days, the medium was replaced with normal medium (DMEM containing 10% FBS), and the cells were incubated until the cells morphologically differentiated into adipocytes. In order to measure the effect of the paper mulberry extract on the inhibition of the accumulation of fat in adipocytes, the differentiated 3T3-L1 adipocytes were subjected to Sudan III staining ([…], Sigma-Aldrich). The adipocytes were fixed with 4% paraformaldehyde (pH 7.2) in phosphate buffer at room temperature, and then washed with PBS (phosphate buffered saline), after which the cells were stained with Sudan III and photographed for visual comparison. […] The degree of inhibition of fat accumulation was expressed as +++, ++ and + depending on the degree of staining.

[6] = test system: differentiated 3T3-L1 adipocytes; assay: Stimulation of decomposition of triglyceride in adipocytes (GPO-trinder kit); assay type: cell-based, mouse; conditions: control = 100%; caffeine 50 μM
Protocol: Mouse fibroblast 3T3-L1 cells were seeded into a 6-well culture plate containing 10% fetal bovine serum (FBS)-containing DMEM (Dulbeco's modified eagle's medium, GIBCO BRL, Life Technologes) at a density of 1×10^5 cells/well. After 2 days, the medium was replaced with fresh DMEM (containing 10% FBS), followed by culture for 2 days. Then, the cultured cells were treated with DMEM (containing 10% FBS) containing 1 μg/ml insulin, 0.5 mM IBMX and 0.25 μM dexamethasone to induce differentiation, and after 2 days, the medium was replaced with insulin-containing DMEM, followed by incubation for 5 days. After 5 days, the medium was replaced with normal medium (DMEM containing 10% FBS), and the cells were incubated until the cells morphologically differentiated into adipocytes. In order to evaluate the effect of the paper mulberry extract on the stimulation of decomposition of triglyceride in adipocytes, a test was carried out using the differentiated […] adipocytes. The 3T3-L1 adipocytes were washed twice with PBS (phosphate buffered saline), and colorless DMEM containing 0.5% fatty acid-free bovine serum albumin (BSA) was added to the cells, and a fraction of the cells was taken and used in the test. As a control, a medium not treated with the test material or the positive control was used. […] (Sigma, St. Louis, Mo., U.S.A.), and the absorbance at 540 nm was measured using an ELISA reader.

## CC(C)Cn1c(=O)n(C)c(=O)c2[nH]cnc21 [IBMX]
[1]
  Ratio (%) of amount of melanin in hair relative to negative control: 105.9%
[2]
  Percentage (%) of gluciferase production relative to negative control: 180%

## O=C(O[C@@H]1Cc2c(O)cc(O)cc2O[C@@H]1c1cc(O)c(O)c(O)c1)c1cc(O)c(O)c(O)c1 [EGCG]
Elastase type III
  Expression (%): 90 ± 1.2%

## CC(C)(C)NC(=O)[C@H]1CC[C@H]2[C@@H]3CC[C@H]4NC(=O)C=C[C@]4(C)[C@H]3CC[C@]12C [finasteride]
[3]
  Conversion (%): 27.6%

## CC1=C(/C=C/C(C)=C/C=C/C(C)=C/C(=O)O)C(C)(C)CCC1 [Retinoic acid, retinoic acid]
Collagenase (MMP-1)
  Expression (%) (collagenase): 75 ± 3.4%

## CC(=O)Oc1ccccc1C(=O)O [aspirin]
[4]
  Prostaglandin production (inhibitory effect on prostaglandin production): 25.0%

## Cn1c(=O)c2c(ncn2C)n(C)c1=O [Caffeine, caffeine]
[5]
  Inhibition (%): +
[6]
  Level of released glycerol: 115%
